# Like-named read-outs stand apart in the source and are kept apart here. Residues, ends and D or L forms follow the SMILES beside them. *: point of attachment. X1 = O=C(O)[C@H]1O[C@@H](O[C@H]2[C@@H](O)[C@@H](CO)O[C@@H](O[C@H]3[C@@H](O)[C@@H](CO)O[C@@H](O[C@@H]4CO[C@@H](*)[C@H](O)[C@H]4O)[C@@H]3O)[C@@H]2O)[C@H](O)[C@@H](O)[C@@H]1O[C@H]1O[C@H](COS(=O)(=O)O)[C@@H](O)[C@H](O)[C@H]1NS(=O)(=O)O; Biotin = O=C1N[C@H]2[C@H](CS[C@H]2CCCCC(=O)*)N1; Ahx = NCCCCCC(=O)O
# What was measured:
# CCL-13 = CCL-13 (Homo sapiens, UniProt Q99616); assay: BLI binding assay, biotinylated compounds on streptavidin biosensors, CCL-13; design: key to K D CCL-13: Inactive denotes a KD value greater than 400 μM; details: for Kd: Table 2, read-out: K D CCL-13
# Experimental: (§1) Cytokines and growth factors are important proteins modulating cellular functions, many of which are known to interact with HS.[1,8,34,67] To probe the impacts of the glycan and the core peptide, the binding of glycopeptide 1, pentasaccharide 30, and peptide 31 to several representative growth factors and cytokines including fibroblast growth factor 2 (FGF-2), interleukin 8 (IL-8) and chemokine (C–C motif ligand 13 (CCL-13)) respectively was tested using the biolayer interferometry (BLI). The biotinylated glycopeptide 1, pentasaccharide 30, and peptide 31 were immobilized on streptavidin coated biosensors, and their dissociation constants (KD) with the proteins were measured (Table 2). […]
# (§2) General procedure for biotinylation
# (§3) To a solution of free amine compounds in DMSO/H 2O (1/1, 0.5 ml) was added […]
# (§4) The reaction was stirred at room temperature for 5 hours. Then the mixture was loaded onto a G-15 Sephadex column for purification. […] General procedure for BLI binding assay
# (§5) The binding assay was performed on the Octet K2 System (Pall ForteBio). The biotinylated […]
# (§6) compounds were absorbed to streptavidin (SA) sensor for 2 min. The sensor was then balanced in the assay buffer (PBS containing 0.005% P20) and dipped into protein solution in assay buffer at different concentration. After 5 min of association, the sensor was brought back to the previous assay
# IL-8 = target: T1, IL-8 (Homo sapiens, UniProt P10145); assay: BLI binding assay, biotinylated compounds on streptavidin biosensors, IL-8; details: Table 2, read-out: K D IL-8
# T1 sequence (P10145 21-99): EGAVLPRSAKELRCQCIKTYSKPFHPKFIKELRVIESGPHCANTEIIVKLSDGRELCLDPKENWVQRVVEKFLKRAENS
# Experimental: as §1, §2, §3, §4, §5, §6
# heparanase = target: T2, heparanase (Homo sapiens, UniProt Q9Y251); assay: Fondaparinux colorimetric heparanase assay; format: biochemical; details: for inhibition at 3.3 µM: 3.3 μM compound; for inhibition at 3.3 µM / inhibition at 10 µM / inhibition at 33 µM: heparanase 5 nM; for inhibition at 10 µM: 10 μM compound; for inhibition at 33 µM: 33 μM compound
# T2 sequence (Q9Y251 158-543 limits assumed): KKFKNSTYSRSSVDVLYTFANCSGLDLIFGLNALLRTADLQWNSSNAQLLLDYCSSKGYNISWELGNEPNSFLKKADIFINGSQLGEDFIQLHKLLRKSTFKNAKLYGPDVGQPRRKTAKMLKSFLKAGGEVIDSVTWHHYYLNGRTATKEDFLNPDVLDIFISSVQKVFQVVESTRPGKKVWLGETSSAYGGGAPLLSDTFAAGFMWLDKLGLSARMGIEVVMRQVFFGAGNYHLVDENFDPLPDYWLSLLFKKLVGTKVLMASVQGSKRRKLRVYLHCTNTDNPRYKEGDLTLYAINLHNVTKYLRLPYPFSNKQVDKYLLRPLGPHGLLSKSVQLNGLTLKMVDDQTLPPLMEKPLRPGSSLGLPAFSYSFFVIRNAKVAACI
# T2 sequence (Q9Y251 36-109 limits assumed): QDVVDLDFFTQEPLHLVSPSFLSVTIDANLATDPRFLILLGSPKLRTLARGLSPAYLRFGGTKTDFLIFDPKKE
# Text: With the synthetic glycopeptide and the corresponding peptide and glycan in hand, we began to probe the impacts of glycan and peptide on biological functions of the glycopeptide. The endoglycosidase heparanase is an important enzyme for HS metabolism, which can cleave HS polysaccharide chains at the cell surface or in the extracellular matrix.[63] Heparanase activities are important for a variety of biological processes, including tumor metastasis and cell proliferation.[64] […]
# General procedure for heparanase assays
# Fondaparinux colorimetric heparanase assays were carried out in 96 well microplates (NEST Scientific 96 Well Cell Culture Plate, 701002) pre-treated with a solution of 4% BSA in phosphate-buffered saline containing 0.05% Tween 20 (PBST) for 2 h at 37 °C. A ssay solutions (100 ul) contained sodium acetate buffer (40 mM, pH 5.0) and fondaparinux ([…], MedChemExpress), heparanase (5 nM) and varying concentrations of compounds of interests or heparin. The mixture was kept at 37 °C for 20 h, which was followed by addition of a solution of WST-1 (100 μL of 1.69 mM WST-1 in 0.1 M NaOH) and incubation at 60 °C for 1 h after which the absorbance at 584 nm was measured (Fluostar Optima plate reader, BMG Labtech). […]
# FGF-2 = FGF-2 (Homo sapiens, UniProt P09038); assay: BLI binding assay, biotinylated compounds on streptavidin biosensors, FGF-2
# Experimental: as §1, §2
# To a solution of free amine compounds in DMSO/H 2O (1/1, 0.5 ml) was added sulfo-NHS-LC-Biotin (5 equiv) and DIPEA (pH ~ 8.5). The reaction was stirred at room temperature for 5 hours. Then the mixture was loaded onto a G-15 Sephadex column for purification. […] General procedure for BLI binding assay
# as §5
# compounds were absorbed to streptavidin (SA) sensor for 2 min. The sensor was then balanced in the assay buffer (PBS containing 0.005% P20) and dipped into protein solution in assay buffer at different concentration. After 5 min of association, the sensor was brought back to the previous assay buffer for a 5 min dissociation step. At the end of the assay, the sensor was regenerated in 2 M NaCl to remove the bound protein. Each measurement was repeated 3 times on the same sensor. The control assay was done with another sensor loaded with saturated biotin solution. […]
# MD trajectories were generated from the protein system without any ligand to relax the structure and minimize the pocket restrictions caused by the present ligand in the structure.
# The geometries of compounds 2, 28 and 29 were optimized using the Gaussian 16 program package. The optimizations were performed using the AM1 method.1 The obtained Mulliken charges were used with the antechamber module of Amber 16 in the generation of parameters. The systems were prepared using the Leap module of AmberTools162 under the AMBER ff14SB and GAFF force fields. Each enzyme complex was solvated in a 14 Å cube of TIP4P-Ew water beyond the solute and 100 mM sodium chloride. The systems were relaxed under NVT conditions over six minimization procedures with decreasing restraints on the protein of 500.0, 200.0, 20.0, 10.0, 5.0 kcal/(mol Å2) to no restraints. The systems were then heated to 300 K over 30 ps. Atomistic molecular dynamics simulations were performed for 30 ns at 300 K and 1 atm using AMBER 16. The SHAKE algorithm constrained bonds involving hydrogen. 3 The trajectories were produced using Langevin dynamics and the pressure of the system was regulated with isotropic position scaling. Long -range electrostatic effects were modeled using the particle-mesh Ewald method with a 10 Å cutoff.
# The produced trajectories were analyzed using AMBER 16 and visualized with MOE and the UCSF Chimera package. Free energy of binding was calculated for every picosecond using the Poisson Boltzmann model form the MMPBSA.py module of AmberTools and AMBER 16. The relative free energy trends between models were compared so solute entropy was neglected.
# Following the general procedure for solid-phase peptide synthesis, peptide 29 was obtained in 52% […]
# RP-HPLC retention time, tR = 24.4 min.
# Following the general procedure for biotinylation, peptide 31 was obtained from 12-mer peptide 29 in 56% yield. The overall yield based on resin loading is 29%. HRMS: C65H103N15O28S [M - 2H]2- […]
# Figure S1: Binding of synthetic compounds 1, 31 and 30 to protein FGF2 as measured by BLI (a-c respectively). The biotinylated compounds (2 μM ) were immobilized on streptavidin coated biosensors, and FGF2 was captured on biosensors with six concentrations at 291 nM, 145 nM, […], 39 nM, 20 nM, 10 nM. Fitting curves were shown in red lines. […]
# [1] = BLI, Table 2, read-out: K D FGF2
# [2] = Table S2, KD values from BLI measurements, read-out: Experimental KD
# Sequence of CCL-13 (Q99616 17-98, species assumed): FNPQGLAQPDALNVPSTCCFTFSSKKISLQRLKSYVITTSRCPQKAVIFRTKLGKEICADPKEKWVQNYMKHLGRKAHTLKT
# Sequence of FGF-2 (P09038 143-288, species assumed): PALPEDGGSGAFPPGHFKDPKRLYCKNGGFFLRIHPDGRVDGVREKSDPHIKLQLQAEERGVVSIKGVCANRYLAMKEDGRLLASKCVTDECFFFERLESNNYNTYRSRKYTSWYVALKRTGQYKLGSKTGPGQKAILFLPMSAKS
compound,measurement,setting,value
CC(C)C[C@H](NC(=O)CCCCCNC(=O)CCCC[C@@H]1SC[C@@H]2NC(=O)N[C@@H]21)C(=O)N[C@@H](CO)C(=O)NCC(=O)N[C@@H](CO[C@@H]1OC[C@@H](O[C@@H]2O[C@H](CO)[C@H](O)[C@H](O[C@@H]3O[C@H](CO)[C@H](O)[C@H](O[C@@H]4O[C@H](C(=O)O)[C@@H](O[C@H]5O[C@H](COS(=O)(=O)O)[C@@H](O)[C@H](O)[C@H]5NS(=O)(=O)O)[C@H](O)[C@H]4O)[C@H]3O)[C@H]2O)[C@H](O)[C@H]1O)C(=O)NCC(=O)N[C@@H](CC(=O)O)C(=O)N[C@@H](CC(C)C)C(=O)N[C@@H](CC(=O)O)C(=O)N[C@@H](CC(=O)O)C(=O)N[C@@H](CC(C)C)C(=O)N[C@@H](CCC(=O)O)C(=O)N[C@@H](CC(=O)O)C(=O)O [Compound 1] ({Biotin-Ahx}-LSGS(X1)GDLDDLED-OH),Kd,CCL-13,498 nM
same,Kd,IL-8,28 nM
same,inhibition at 3.3 µM,heparanase,< 0%
same,inhibition at 10 µM,heparanase,< 0%
same,inhibition at 33 µM,heparanase,< 0%
same,inhibition of heparanase at concentrations up to 100 μM,heparanase,neither peptide 31 nor glycopeptide 1 were able to inhibit heparanase
same,Kd,FGF-2; [1],5 nM
same,"FGF-2 binding, fold higher than pentasaccharide 30 and peptide 31",FGF-2; ratio of KD values,about 3 fold
NCCCO[C@@H]1OC[C@@H](O[C@@H]2O[C@H](CO)[C@H](O)[C@H](O[C@@H]3O[C@H](CO)[C@H](O)[C@H](O[C@@H]4O[C@H](C(=O)O)[C@@H](O[C@H]5O[C@H](COS(=O)(=O)O)[C@@H](O)[C@H](O)[C@H]5NS(=O)(=O)O)[C@H](O)[C@H]4O)[C@H]3O)[C@H]2O)[C@H](O)[C@H]1O [Compound 28],Kd,FGF-2; [2],14.5 nM
CC(C)C[C@H](NC(=O)[C@H](CC(=O)O)NC(=O)CNC(=O)[C@H](CO)NC(=O)CNC(=O)[C@H](CO)NC(=O)[C@@H](N)CC(C)C)C(=O)N[C@@H](CC(=O)O)C(=O)N[C@@H](CC(=O)O)C(=O)N[C@@H](CC(C)C)C(=O)N[C@@H](CCC(=O)O)C(=O)N[C@@H](CC(=O)O)C(=O)O [Compound 29] (H-LSGSGDLDDLED-OH),Kd,FGF-2; [2],17 nM
O=C(CCCCC1SCC2NC(=O)NC21)NCCCCCC(=O)NCCCOC1OCC(OC2OC(CO)C(O)C(OC3OC(CO)C(O)C(OC4OC(C(=O)O)C(OC5OC(COS(=O)(=O)O)C(O)C(O)C5NS(=O)(=O)O)C(O)C4O)C3O)C2O)C(O)C1O (stereo not drawn) [Compound 30],KD with CCL-13,CCL-13,did not exhibit much binding
same,K D CCL-13,CCL-13; Table 2,Inactive
same,Kd,IL-8,39 nM
same,inhibition at 3.3 µM,heparanase,< 0%
same,inhibition at 10 µM,heparanase,32%
same,inhibition at 33 µM,heparanase,61%
same,Kd,FGF-2; [1],14.5 nM
CC(C)C[C@H](NC(=O)CCCCCNC(=O)CCCC[C@@H]1SC[C@@H]2NC(=O)N[C@@H]21)C(=O)N[C@@H](CO)C(=O)NCC(=O)N[C@@H](CO)C(=O)NCC(=O)N[C@@H](CC(=O)O)C(=O)N[C@@H](CC(C)C)C(=O)N[C@@H](CC(=O)O)C(=O)N[C@@H](CC(=O)O)C(=O)N[C@@H](CC(C)C)C(=O)N[C@@H](CCC(=O)O)C(=O)N[C@@H](CC(=O)O)C(=O)O [Compound 31] ({Biotin-Ahx}-LSGSGDLDDLED-OH; N-terminus and C-terminus assumed),Kd,CCL-13,92 nM
same,Kd,IL-8,75 nM
same,inhibition at 3.3 µM,heparanase,< 0%
same,inhibition at 10 µM,heparanase,< 0%
same,inhibition at 33 µM,heparanase,< 0%
same,inhibition of heparanase at concentrations up to 100 μM,heparanase,neither peptide 31 nor glycopeptide 1 were able to inhibit heparanase
same,Kd,FGF-2; [1],17 nM

# Source: publication PMC8159385, “Chemical synthesis of human syndecan-4 glycopeptide bearing O-, N-sulfation and multiple aspartic acids for probing impacts of the glycan chain and the core peptide on biological functions” (Chemical Science, 2020)
